Results published in ChEMBL document CHEMBL1136902, “Binaphthyl scaffolded peptoids via ring-closing metathesis reactions and their anti-bacterial activities” (2009).
Values after ≈ are worked out from the molar mass of the structure shown.

System: Staphylococcus aureus
Test: Antibacterial activity against Staphylococcus aureus ATCC 6538
Type: functional

Row | Compound | MIC [µg/mL]
1 | COC(=O)[C@@H]1C/C=C\COc2ccc3ccccc3c2-c2c(ccc3ccccc23)OCC(=O)N[C@H](CCCCN)C(=O)N1.Cl | 15
2 | COC(=O)[C@H]1C/C=C/Cn2cc(c3ccccc32)CC(=O)N[C@H](CCCCN)C(=O)N1 | 125 (≈ 293 µM)
3 | CN[C@H](CC(C)C)C(=O)N[C@H]1C(=O)N[C@@H](CC(N)=O)C(=O)N[C@H]2C(=O)N[C@H]3C(=O)N[C@H](C(=O)N[C@H](C(=O)O)c4cc(O)cc(O)c4-c4cc3ccc4O)[C@H](O)c3ccc(c(Cl)c3)Oc3cc2cc(c3O[C@@H]2O[C@H](CO)[C@@H](O)[C@H](O)[C@H]2O[C@H]2C[C@](C)(N)[C@H](O)[C@H](C)O2)Oc2ccc(cc2Cl)[C@H]1O [VANCOMYCIN] | 1.95 (≈ 1.35 µM)
4 | COC(=O)[C@H]1C/C=C/Cn2cc(c3ccccc32)CCC(=O)N[C@H](CCCCN)C(=O)N1 | 125 (≈ 284 µM)
5 | COC(=O)C1CC=CCOc2ccc(cc2)C[C@H](NC(C)=O)C(=O)N[C@@H](CCCCN)C(=O)N1 (stereo partly specified) | 62.5 (≈ 132 µM)
6 | COC(=O)[C@H]1C/C=C/Cn2cc(c3ccccc32)CCCC(=O)N[C@H](CCCCN)C(=O)N1 | 125 (≈ 275 µM)
7 | C=CCOc1ccc2ccccc2c1-c1c(OCC(=O)N[C@H](CCCCN)C(=O)OC)ccc2ccccc12.Cl | 32
8 | COC(=O)[C@@H]1C/C=C/Cc2ccc3c(c2)c2cc(ccc2n3C(=O)OC(C)(C)C)[C@H](NC(C)=O)C(=O)N[C@H](CCCCN)C(=O)N1 | 15 (≈ 23.7 µM)
9 | C=CCOc1ccc2ccccc2c1-c1c(OCC(=O)N[C@H](CCCCNC(=N)N)C(=O)N[C@H](CC=C)C(=O)OC)ccc2ccccc12.Cl | 8
10 | COC(=O)[C@@H]1C/C=C\COc2ccc3ccccc3c2-c2c(ccc3ccccc23)OCC(=O)N[C@H](CCCCNC(=N)N)C(=O)N1.Cl | 8
11 | C=CCOc1ccc2ccccc2c1-c1c(OCCCC(=O)N[C@H](CCCCN)C(=O)N[C@H](CC=C)C(=O)OC)ccc2ccccc12.Cl | 15
12 | COC(=O)[C@@H]1C/C=C/Cc2cc3ccccc3c(c2OC)-c2c(OC)c(cc3ccccc23)CC(NC(C)=O)C(=O)N[C@H](CCCCN)C(=O)N1 (stereo partly specified) | 7 (≈ 10.1 µM)
13 | COC(=O)C1CC=CCOc2ccc(cc2)C[C@H](NC(C)=O)C(=O)N[C@@H](CCCNC(=N)N)C(=O)N1 (stereo partly specified) | 62.5 (≈ 124 µM)
14 | C=CCOc1ccc2ccccc2c1-c1c(OCCCC(=O)N[C@H](CCCCNC(=N)N)C(=O)N[C@H](CC=C)C(=O)OC)ccc2ccccc12.Cl | 8
15 | C=CCOc1ccc2ccccc2c1-c1c(OCC(=O)N[C@H](CCCCN)C(=O)N[C@H](CC=C)C(=O)OC)ccc2ccccc12.Cl | 4
16 | COC(=O)C1C/C=C\COc2ccc(cc2)CC(NC(C)=O)C(=O)NC(CCCCNC(=N)N)C(=O)N1 (stereo unspecified) | 62.5 (≈ 121 µM)
